In patent US11352382B2, “Mito-lonidamine, compositions and methods of use” (THE MEDICAL COLLEGE OF WISCONSIN, INC., priority 2018, dated 2022):
pIC50, pKi: −log10 of the molar value. Entries after “also recorded” stand apart in the source; their conditions may differ.

What was measured:
[1] = test system: H2030, PC9, H460, H2030BrM3, PC9BrM3 cells; experiment: Cell viability of lung cancer and brain metastatic lines (Calcein-AM); assay type: cell-based, human
Text: Mito-LON treatment causes cell death of human lung cancer and lung cancer-derived brain metastatic cell lines. Paradoxical roles for autophagy in cancer have been reported for the role of autophagy in cancer. Under conditions of nutrient deprivation autophagy induction can promote cell survival; however, in response to other environmental stressors including ROS generation, autophagy can promote cancer cell death. We treated lung cancer lines (H2030, PC9, H460) and lung cancer-derived brain metastatic lines (H2030BrM3, PC9BrM3) with Mito-LON (1.6, 2.0 or 2.4 μM) and measured cell viability at 24 and 48 h.

[2] = test system: mitochondrial Complex I; experiment: Activity of mitochondrial complexes in permeabilized tumor cells (OCR), pancreatic cancer cells; assay type: cell-based, human
Description: To investigate the mechanism of mitochondrial inhibition, we measured the activity of mitochondrial complexes in tumor cells. The cell membrane was permeabilized, and OCR was measured upon addition of substrates and inhibitors of mitochondrial complexes I-II.

[3] = test system: mitochondrial Complex I; experiment: Mitochondrial complex I activity (OCR) in permeabilized H2030BrM3 cells after 24 h pretreatment; assay type: cell-based, human
Text: (§1) LON and Mito-LON inhibit mitochondrial complex I activity. Mito-LON inhibited cellular respiration (oxygen consumption rate, OCR) at >100-fold lower concentration than LON in intact lung cancer cells (FIG. 9). Both basal respiration and the response to mitochondrial stressors (oligomycin, dinitrophenol) were diminished by Mito-LON (not shown). To investigate the mechanism of mitochondrial inhibition, we measured the activity of mitochondrial complexes in H2030BrM3 cells (NSCLC cell line). The cell membrane was permeabilized, and OCR was measured upon addition of substrates and inhibitors of mitochondrial complexes I-IV (FIG. 9A). These studies established the optimal use of permeabilized cells for complex activity assays.^54 Next, cells were pretreated with LON and Mito-LON for 24 h and experiments performed as in FIG. 9A. […] We hypothesize that inhibition of mitochondrial complexes I and II is the predominant mechanism for antiproliferative effects of Mito-LON on lung cancer cells.

[4] = test system: PC9BrM3 and H2030BrM3 brain metastasis lung cancer cell lines; experiment: Boyden chamber (transwell) invasion assay; assay type: cell-based; conditions: Homo sapiens, H2030-BrM3, read-out: inhibitory effect on invasion when used alone
Text: Mito-LON inhibits migration and invasion of brain metastatic human lung cancer cells. To investigate the potential of Mito-LON and LON for lung cancer metastasis, we first tested its effects in vitro via the Boyden chamber invasion assay using PC9BrM3 and H2030BrM3 brain metastasis lung cancer cell lines.

[5] = test system: A/J mice; experiment: 8-week toxicology study (maximum tolerated dose, Modified Irwin Screen); assay type: in vivo, mouse
Text: Maximum tolerated dose (MTD) of Mito-LON. We conducted an 8-week toxicology study to evaluate possible toxicity of Mito-LON, especially on neural and muscle cells using a Modified Irwin Screen, developed as a comprehensive observational battery to broadly screen for central nervous system (CNS) effects of agents. Modifications of this test are extensively used in the pharmaceutical industry and in academic research to identify changes in neurological function as a result of agent intoxication, neurotoxicity, or genetic manipulation. The screen used here employs 35 distinct measurements to assess sensorimotor, neurological, and autonomic nervous system function^78. The effective dose (ED) of Mito-LON is designated as 7.5 μmol/kg based on our preliminary data (FIGS. 24 & 25).

[6] = test system: mitochondrial Prx3; experiment: Redox status of mitochondrial peroxiredoxin; assay type: cell-based, human; conditions: lung cancer cells
Text: (§2) Inhibition of mitochondrial respiration results in increased O2^⋅− and other oxidants.

[7] = test system: intact lung cancer cells; experiment: Cellular respiration (oxygen consumption rate, OCR) in intact lung cancer cells; assay type: cell-based, human; conditions: not shown
Text: as §1

[8] = molecular target: T1, mitochondrial complex II (Homo sapiens, UniProt O14521+P21912+P31040+Q99643); experiment: Mitochondrial complex II activity (OCR) in permeabilized H2030BrM3 cells after 24 h pretreatment; assay type: cell-based
T1 construct: we measured the activity of mitochondrial complexes in H2030BrM3 cells (NSCLC cell line); endogenous in cells; host or cells: H2030BrM3
Text: as §1

[9] = test system: H2030BrM3 orthotopic lung adenocarcinoma in nude mice; experiment: Orthotopic lung tumor mouse model; assay type: in vivo
Description: Inhibitory effects of Mito-LON in an orthotopic lung tumor mouse model. We conducted a pilot study using an orthotopic model of lung adenocarcinoma (H2030BrM3 cells) in nude mice. Cells (1×10^6 cells/50 μg of growth factor-reduced Matrigel in 50 μL of RPMI-1640) were injected into the lung. One week after injection, mice were treated with the same dose of LON or Mito-LON (7.5 μmol/kg), or vehicle (corn oil), by oral gavage 5 times/wk for 3 wks.

[10] = test system: luciferase-expressing H2030BrM3 cells in Nod/Scid mice; experiment: Lung cancer brain metastasis model, intra-cardiac injection, bioluminescence; assay type: in vivo, mouse; conditions: 7.5 μmol/kg oral gavage
Description: Mito-LON inhibits lung cancer brain metastasis in Nod/Scid mice. Preliminary experiments assessed the effect of Mito-LON, and its enhanced potency vs. LON, on brain metastasis in Nod/Scid mice in which luciferase-expressing H2030BrM3 cells were injected via intra-cardiac insertion. To ensure the accuracy of injection and precision in the quantity of the cells injected, we used high-resolution echocardiography to guide the needle into the left ventricle. In FIG. 25A, the needle's positioning is clearly discernable. Mice were imaged for firefly luciferase expression (150 μg/g D-luciferin) using an IVIS 100 imaging system at multiple time points post-injection. Regions of interest were defined manually over the brain, and LivingImage and Igor image analysis software were used to determine total photon flux. One day after engrafting the H2030BrM3 cells in arterial circulation (FIG. 19A), LON or Mito-LON (7.5 μmol/kg each) were administered by oral gavage, tumor growth was monitored by bioluminescence, and ex vivo GFP expression and H&E staining were determined at the end point. H2030BrM3 cells rapidly colonized in the cerebrum and cerebellum (FIG. 25B).

[11] = test system: H2030BrM3 cells; experiment: Cellular ROS production, HPLC-based analysis of hydroethidine (HE) oxidation; assay type: cell-based, human; conditions: for ROS generation in lung cancer cells: concentration not given
Text: as §2

[12] = 7.5 μmol/kg oral gavage 5 times/wk for 3 wks, nude mice

T1 sequence (P31040 43-664): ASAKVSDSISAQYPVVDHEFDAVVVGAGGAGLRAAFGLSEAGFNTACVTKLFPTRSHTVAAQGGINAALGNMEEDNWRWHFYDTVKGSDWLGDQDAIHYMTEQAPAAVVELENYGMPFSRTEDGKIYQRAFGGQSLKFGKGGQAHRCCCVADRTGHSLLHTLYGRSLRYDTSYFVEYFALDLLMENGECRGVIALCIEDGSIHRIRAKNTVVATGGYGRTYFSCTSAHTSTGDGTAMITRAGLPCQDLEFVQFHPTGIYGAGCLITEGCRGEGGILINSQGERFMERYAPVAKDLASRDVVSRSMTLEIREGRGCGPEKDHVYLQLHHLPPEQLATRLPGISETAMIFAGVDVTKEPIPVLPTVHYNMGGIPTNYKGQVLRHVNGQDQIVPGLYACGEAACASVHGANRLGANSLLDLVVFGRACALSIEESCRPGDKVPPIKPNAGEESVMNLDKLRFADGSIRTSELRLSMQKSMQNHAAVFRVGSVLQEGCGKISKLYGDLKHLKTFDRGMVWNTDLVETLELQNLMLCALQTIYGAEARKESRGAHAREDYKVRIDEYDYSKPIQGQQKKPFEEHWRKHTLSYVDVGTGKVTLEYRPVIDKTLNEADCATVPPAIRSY
T1 sequence (P21912 29-280): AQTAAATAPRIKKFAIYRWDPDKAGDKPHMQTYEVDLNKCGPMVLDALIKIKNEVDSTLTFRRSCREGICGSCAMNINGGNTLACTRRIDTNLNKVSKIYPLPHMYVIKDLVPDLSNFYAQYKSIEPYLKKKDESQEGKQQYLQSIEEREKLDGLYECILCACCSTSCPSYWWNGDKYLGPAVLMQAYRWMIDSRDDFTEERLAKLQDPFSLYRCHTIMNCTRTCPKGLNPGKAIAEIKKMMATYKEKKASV
T1 sequence (Q99643 30-169): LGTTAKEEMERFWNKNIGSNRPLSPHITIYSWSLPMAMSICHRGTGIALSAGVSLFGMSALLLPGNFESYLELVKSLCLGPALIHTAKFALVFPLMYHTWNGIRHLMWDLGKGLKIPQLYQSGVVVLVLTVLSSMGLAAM
T1 sequence (O14521 57-159): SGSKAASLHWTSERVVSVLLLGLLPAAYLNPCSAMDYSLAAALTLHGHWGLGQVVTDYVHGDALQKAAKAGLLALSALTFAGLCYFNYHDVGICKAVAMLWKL

## O=C(NCCCCCCCCCC[P+](c1ccccc1)(c1ccccc1)c1ccccc1)c1nn(Cc2ccc(Cl)cc2Cl)c2ccccc12 [Mito-LON, Mito10-lonidamine]
[1]; Homo sapiens, NCI-H2030, H2030 cells, 2.0 μM, 48 h, Calcein-AM, read-out: reduction of cell viability
  cytotoxicity at 2 µM: ~50%
[1]; lung cancer and brain metastatic lines, 24 and 48 h
  LD50, cell viability: 2.0 µM
[2]; FIG. 7
  Complex I versus Complex II inhibition: inhibits Complex I more potently than Complex II
[2]; FIGS. 7 and 8
  fold more potent than lonidamine in inhibiting Complex I activity of tumor cells: > 500 fold
[3]; 24 h pretreatment, FIG. 9B
  fold more potent than LON for complex I: 370 fold
[3]; FIG. 9
  pKi: 5.92
[3]; H2030BrM3 lung cancer cells, FIG. 9, read-out: IC50, respiratory complex I
  pIC50: 5.92
[4]
  inhibition at 0.6 µM: < 10%
[5]; doses up to 50× ED
  toxicity overall: did not show any toxicity
[5]; up to 50× ED, A/J mice, 8-weeks treatment
  body weights (and organ weights) and 35 Modified Irwin Screen metrics versus control: didn't observe any significant differences
[5]; up to 50× ED, A/J mice, 8 weeks
  toxic effects in neural tissue and muscles by histopathology, liver function (serum AST and ALT): No toxic effects
[6]
  oxidation of mitochondrial Prx3: oxidizes mitochondrial Prx3; also recorded: pronounced oxidation
[6]; listed as Mito-LDN
  oxidation of mitochondrial Prx3: oxidizes mitochondrial Prx3
[7]
  basal respiration and response to mitochondrial stressors (oligomycin, dinitrophenol): diminished
[8]; 24 h pretreatment, FIG. 9B
  fold more potent than LON for complex II: 144 fold
[8]; FIG. 9
  pKi: 5.57
[8]; H2030BrM3 lung cancer cells, FIG. 9, read-out: IC50, respiratory complex II
  pIC50: 5.57
[9]; [12]
  reduction of lymph node metastasis: > 50%
  reduction of tumor progression: > 70%
[9]; 7.5 μmol/kg oral gavage, 3 wks
  liver histopathology (H&E sections): no histopathologic signs of toxicity
[9]; designated from preliminary data (FIGS. 24 & 25)
  effective dose (ED): 7.5 µmol/kg
[10]
  inhibition of brain metastasis of lung cancer cells: significant efficacy in inhibiting brain metastasis
[11]; 0.2 μM, H2030BrM3 cells
  intracellular levels of 2-OH-E+ (superoxide-specific product of HE oxidation): increase
[11]; H2030BrM3 cells
  formation of diethidium (E+-E+): strongly induced
[11]
  ROS generation in lung cancer cells: stimulates ROS generation; also recorded: induced ROS generation in mitochondria; also recorded: enhanced the formation of 2-hydroxyethidium; also recorded: increased ROS generation
[11]; listed as Mito-LDN
  ROS generation in lung cancer cells: stimulates ROS generation
